Measured values published in PubChem BioAssay (NCI).
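Growth conditions: 96-well plates. Treatment: test compound, 48 hours, 5 concentrations. Analysis: linear interpolation between bracketing concentrations; unreached endpoints set to highest concentration. At the TGI there is no net growth.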

test system: BT-549 breast; experiment: inhibition of tumour cell growth, NCI panel, 48 h

`C=C(C)[C@H]1Cc2c(ccc3c2O[C@@H]2COc4cc(OC)c(OC)cc4[C@@H]2C3=O)O1` showed a TGI of 9.23 µM.

test system: MALME-3M melanoma; experiment: inhibition of tumour cell growth, NCI panel, 48 h

`Clc1cc(Cl)c2ns[s+]c2c1Cl` and `CCOC(=O)C1SC(=Nc2ccc(C)c(C)c2)N=C1C` (stereo not drawn) cannot be ordered by TGI: over 100 µM for the first, over 100 µM for the second.

`C=C(C)[C@H]1Cc2c(ccc3c2O[C@@H]2COc4cc(OC)c(OC)cc4[C@@H]2C3=O)O1` and `COC(=O)[C@@]12C(=O)C=CC(=O)C1C1C(=CC2C)OC2OC3(CCCCC3)OC21` (stereo partly drawn) are within 1.5-fold of each other in TGI: 48 µM for the first, 37.8 µM for the second.

Compared with `CC1=CCC(O)C=CC(C)C(O)C(C)C=C(C)C(=O)c2c(O)c(C)cc3c2C(=O)C(N)=C(NC(=O)/C=C\C=C/C=CC(C)C(O)CC1=O)C3=O` (stereo not drawn), `CCCC1=C(CC)C(C(=O)Nc2c(C)cccc2C)=NC(S)N1` (stereo not drawn) is higher in TGI: 82.7 µM for the first, over 100 µM for the second.

Compound `COc1ccc(S(=O)(=O)c2ccccc2[N+](=O)[O-])cc1` has a TGI of over 100 µM.

test system: HT29 colon; experiment: inhibition of tumour cell growth, NCI panel, 48 h

`Clc1cc(Cl)c2ns[s+]c2c1Cl` and `CCOC(=O)C1SC(=Nc2ccc(C)c(C)c2)N=C1C` (stereo not drawn) cannot be ordered by TGI: over 100 µM for the first, over 100 µM for the second.

Compared with `C=C(C)[C@H]1Cc2c(ccc3c2O[C@@H]2COc4cc(OC)c(OC)cc4[C@@H]2C3=O)O1`, `COC(=O)[C@@]12C(=O)C=CC(=O)C1C1C(=CC2C)OC2OC3(CCCCC3)OC21` (stereo partly drawn) is 11-fold higher in TGI: 4.09 µM for the first, 44.9 µM for the second.

`CC1=CCC(O)C=CC(C)C(O)C(C)C=C(C)C(=O)c2c(O)c(C)cc3c2C(=O)C(N)=C(NC(=O)/C=C\C=C/C=CC(C)C(O)CC1=O)C3=O` (stereo not drawn) and `CCCC1=C(CC)C(C(=O)Nc2c(C)cccc2C)=NC(S)N1` (stereo not drawn) cannot be ordered by TGI: over 100 µM for the first, over 100 µM for the second.

`COc1ccc(S(=O)(=O)c2ccccc2[N+](=O)[O-])cc1` was tested, and the TGI was over 100 µM.

test system: SK-MEL-5 melanoma; experiment: inhibition of tumour cell growth, NCI panel, 48 h

`Clc1cc(Cl)c2ns[s+]c2c1Cl` and `CCOC(=O)C1SC(=Nc2ccc(C)c(C)c2)N=C1C` (stereo not drawn) cannot be ordered by TGI: over 100 µM for the first, over 100 µM for the second.

Compared with `C=C(C)[C@H]1Cc2c(ccc3c2O[C@@H]2COc4cc(OC)c(OC)cc4[C@@H]2C3=O)O1`, `COC(=O)[C@@]12C(=O)C=CC(=O)C1C1C(=CC2C)OC2OC3(CCCCC3)OC21` (stereo partly drawn) is 11-fold higher in TGI: 3.04 µM for the first, 33.6 µM for the second.

`CC1=CCC(O)C=CC(C)C(O)C(C)C=C(C)C(=O)c2c(O)c(C)cc3c2C(=O)C(N)=C(NC(=O)/C=C\C=C/C=CC(C)C(O)CC1=O)C3=O` (stereo not drawn) and `CCCC1=C(CC)C(C(=O)Nc2c(C)cccc2C)=NC(S)N1` (stereo not drawn) cannot be ordered by TGI: over 100 µM for the first, over 100 µM for the second.

With `COc1ccc(S(=O)(=O)c2ccccc2[N+](=O)[O-])cc1` the TGI was over 100 µM.

test system: CCRF-CEM leukemia; experiment: inhibition of tumour cell growth, NCI panel, 48 h

`Clc1cc(Cl)c2ns[s+]c2c1Cl` and `CCOC(=O)C1SC(=Nc2ccc(C)c(C)c2)N=C1C` (stereo not drawn) cannot be ordered by TGI: over 100 µM for the first, over 100 µM for the second.

Going from `C=C(C)[C@H]1Cc2c(ccc3c2O[C@@H]2COc4cc(OC)c(OC)cc4[C@@H]2C3=O)O1` to `COC(=O)[C@@]12C(=O)C=CC(=O)C1C1C(=CC2C)OC2OC3(CCCCC3)OC21` (stereo partly drawn), the TGI falls from 71.1 µM to 7.49 µM (9.5-fold).

`CC1=CCC(O)C=CC(C)C(O)C(C)C=C(C)C(=O)c2c(O)c(C)cc3c2C(=O)C(N)=C(NC(=O)/C=C\C=C/C=CC(C)C(O)CC1=O)C3=O` (stereo not drawn) and `CCCC1=C(CC)C(C(=O)Nc2c(C)cccc2C)=NC(S)N1` (stereo not drawn) cannot be ordered by TGI: over 100 µM for the first, over 100 µM for the second.

`COc1ccc(S(=O)(=O)c2ccccc2[N+](=O)[O-])cc1` was tested, and the TGI was over 100 µM.

test system: HOP-62 NSCLC; experiment: inhibition of tumour cell growth, NCI panel, 48 h

`Clc1cc(Cl)c2ns[s+]c2c1Cl` and `CCOC(=O)C1SC(=Nc2ccc(C)c(C)c2)N=C1C` (stereo not drawn) cannot be ordered by TGI: over 100 µM for the first, over 100 µM for the second.

`C=C(C)[C@H]1Cc2c(ccc3c2O[C@@H]2COc4cc(OC)c(OC)cc4[C@@H]2C3=O)O1` and `COC(=O)[C@@]12C(=O)C=CC(=O)C1C1C(=CC2C)OC2OC3(CCCCC3)OC21` (stereo partly drawn) are within 1.5-fold of each other in TGI: 40.5 µM for the first, 35.8 µM for the second.

`CC1=CCC(O)C=CC(C)C(O)C(C)C=C(C)C(=O)c2c(O)c(C)cc3c2C(=O)C(N)=C(NC(=O)/C=C\C=C/C=CC(C)C(O)CC1=O)C3=O` (stereo not drawn) and `CCCC1=C(CC)C(C(=O)Nc2c(C)cccc2C)=NC(S)N1` (stereo not drawn) cannot be ordered by TGI: over 100 µM for the first, over 100 µM for the second.

`COc1ccc(S(=O)(=O)c2ccccc2[N+](=O)[O-])cc1` showed a TGI of over 100 µM.

test system: M19-MEL melanoma; experiment: inhibition of tumour cell growth, NCI panel, 48 h

`Clc1cc(Cl)c2ns[s+]c2c1Cl` and `CCOC(=O)C1SC(=Nc2ccc(C)c(C)c2)N=C1C` (stereo not drawn) cannot be ordered by TGI: over 100 µM for the first, over 100 µM for the second.

Compared with `C=C(C)[C@H]1Cc2c(ccc3c2O[C@@H]2COc4cc(OC)c(OC)cc4[C@@H]2C3=O)O1`, `COC(=O)[C@@]12C(=O)C=CC(=O)C1C1C(=CC2C)OC2OC3(CCCCC3)OC21` (stereo partly drawn) is lower in TGI: over 73 µM for the first, 35.1 µM for the second.

`CC1=CCC(O)C=CC(C)C(O)C(C)C=C(C)C(=O)c2c(O)c(C)cc3c2C(=O)C(N)=C(NC(=O)/C=C\C=C/C=CC(C)C(O)CC1=O)C3=O` (stereo not drawn) and `CCCC1=C(CC)C(C(=O)Nc2c(C)cccc2C)=NC(S)N1` (stereo not drawn) cannot be ordered by TGI: over 100 µM for the first, over 100 µM for the second.

`COc1ccc(S(=O)(=O)c2ccccc2[N+](=O)[O-])cc1` was tested, and the TGI was over 100 µM.

test system: SW-620 colon; experiment: inhibition of tumour cell growth, NCI panel, 48 h

First: Clc1cc(Cl)c2ns[s+]c2c1Cl
Second: C=C(C)[C@H]1Cc2c(ccc3c2O[C@@H]2COc4cc(OC)c(OC)cc4[C@@H]2C3=O)O1
The TGI of the first is higher: over 100 µM for the first, 82.8 µM for the second.

Compared with `COC(=O)[C@@]12C(=O)C=CC(=O)C1C1C(=CC2C)OC2OC3(CCCCC3)OC21` (stereo partly drawn), `CC1=CCC(O)C=CC(C)C(O)C(C)C=C(C)C(=O)c2c(O)c(C)cc3c2C(=O)C(N)=C(NC(=O)/C=C\C=C/C=CC(C)C(O)CC1=O)C3=O` (stereo not drawn) is higher in TGI: 37.4 µM for the first, over 100 µM for the second.

For `COc1ccc(S(=O)(=O)c2ccccc2[N+](=O)[O-])cc1`, the TGI was over 100 µM.
